The source made the active and inactive calls. No cut-off for these calls is given here.
Experiments:
Cannabinoid receptor 1 [1] = biological target: T1, Cannabinoid receptor 1 (Homo sapiens, UniProt P21554); test: Agonist activity at human CB1 receptor expressed in CHOK1 cells assessed as induction of beta-arrestin recruitment measured after 30 mins by PathHunter assay; format: cell-based
[2] = Half life in rat liver microsomes at 3 uM in presence of NADPH by LC-MS/MS analysis; format: ADME, Microsome
Cannabinoid receptor 1 [3] = biological target: T1, Cannabinoid receptor 1; test: Agonist activity at human Gi/Go-coupled CB1 receptor expressed in CHOK1 cells assessed as inhibition of forskolin-stimulated cAMP production measured after 30 mins by Hit-hunter assay
[4] = Half life in human liver microsomes at 3 uM in presence of NADPH by LC-MS/MS analysis; format: ADME, Microsome
Cannabinoid receptor 1 [5] = biological target: T1, Cannabinoid receptor 1; test: Agonist activity at human Gi/Go-coupled CB1 receptor expressed in CHOK1 cells assessed as inhibition of forskolin-stimulated cAMP production measured after 30 mins by Hit-hunter assay relative to CP55940; format: cell-based; details: 0.5 h
[6] = Half life in mouse liver microsomes at 3 uM in presence of NADPH by LC-MS/MS analysis; format: ADME, Microsome
Cannabinoid receptor 1 [7] = biological target: T1, Cannabinoid receptor 1; test: Positive allosteric modulation of human CB1 receptor expressed in CHOK1 cells assessed as increase in CP55940-induced beta-arrestin recruitment preincubated for 30 mins followed by CP55940 addition and measured after 90 to 180 mins by PathHunter assay; format: cell-based
Cannabinoid receptor 1 [8] = biological target: T1, Cannabinoid receptor 1
Mus musculus [9] = test: Psychoactive effect in C57BL/6J mouse assessed as antinociceptive effect at 40 mg/kg, ip measured after 30 mins by warm water tail withdrawal assay; format: ADME, organism-based; details: in vivo, 0.5 h
Cannabinoid receptor 1 [10] = biological target: T1, Cannabinoid receptor 1; test: Positive allosteric modulation of human Gi/Go-coupled CB1 receptor expressed in CHOK1 cells assessed as increase in CP55940-induced inhibition of forskolin-stimulated cAMP production preincubated for 30 mins followed by CP55940 addition and measured after 30 to 60 mins by Hit-hunter assay relative to CP55940; format: functional, cell-based
Mus musculus [11] = test: Psychoactive effect in C57BL/6J mouse assessed as change in immobility time at 40 mg/kg, ip measured after 30 mins by catalepsy bar test; format: ADME, organism-based; details: in vivo, 0.5 h
Mus musculus [12] = test: Psychoactive effect in C57BL/6J mouse assessed as effect on locomotor activity by measuring change in distance travelled at 40 mg/kg, ip measured after 30 mins; format: ADME, organism-based; details: in vivo, 0.5 h
[13] = biological target: Cannabinoid receptor 1 (Mus musculus) (UniProt P47746); test: Positive allosteric modulation of CB1 receptor in mouse brain membranes assessed as increase in [3H]CP55940 binding at 1 uM measured after 60 mins relative to control; format: cell membranes
Cannabinoid receptor 1 [14] = biological target: T1, Cannabinoid receptor 1; test: Positive allosteric modulation of human CB1 receptor expressed in CHOK1 cells assessed as increase in CP55940-induced beta-arrestin recruitment preincubated for 30 mins followed by CP55940 addition and measured after 90 to 180 mins by PathHunter assay relative to CP55940; format: cell-based
Cannabinoid receptor 1 [15] = biological target: T1, Cannabinoid receptor 1; test: Positive allosteric modulation of human CB1 receptor expressed in CHOK1 cells assessed as increase in CP55940-induced beta-arrestin recruitment at 500 nM preincubated for 30 mins followed by CP55940 addition and measured after 90 to 180 mins by PathHunter assay relative to CP55940; format: cell-based
Mus musculus [16] = test: Psychoactive effect in C57BL/6J mouse assessed as effect on locomotor activity by measuring change in immobility time at 40 mg/kg, ip measured after 30 mins; format: ADME, organism-based; details: in vivo, 0.5 h
Mus musculus [17] = test: Psychoactive effect in C57BL/6J mouse assessed as hypothermia by measuring change in rectal temperature at 40 mg/kg, ip measured after 30 mins; format: ADME, organism-based; details: in vivo, 0.5 h
Mus musculus [18] = test: Enhancement of CP55940-induced antinociceptive activity in C57BL/6J mouse assessed as increase in tail withdrawal latency at 40 mg/kg, ip pretreated for 15 mins followed by CP55940 addition and measured after 30 mins by warm water tail withdrawal assay; format: functional, organism-based
Mus musculus [19] = test: Antiallodynic activity in C57BL/6J mouse model of CCI-induced neuropathic pain assessed as reduction in mechanical sensitivity in ipsilateral paw at 40 mg/kg, ip by Von frey filament test; format: functional, organism-based; details: TDE = time-dependent effect
Mus musculus [20] = test: Antiallodynic activity in C57BL/6J mouse model of CCI-induced neuropathic pain assessed as reduction in mechanical sensitivity in contralateral paw at 40 mg/kg, ip by Von frey filament test; format: functional, organism-based; details: TDE = time-dependent effect
Cannabinoid receptor 1 [21] = biological target: T1, Cannabinoid receptor 1; test: Positive allosteric modulation of human CB1 receptor expressed in CHOK1 cells assessed as increase in CP55940-induced beta-arrestin recruitment at 300 nM preincubated for 30 mins followed by CP55940 addition and measured after 90 to 180 mins by PathHunter assay relative to CP55940; format: cell-based
Cannabinoid receptor 1 [22] = biological target: T1, Cannabinoid receptor 1; test: Positive allosteric modulation of human CB1 receptor expressed in CHOK1 cells assessed as increase in CP55940-induced beta-arrestin recruitment at 1000 nM preincubated for 30 mins followed by CP55940 addition and measured after 90 to 180 mins by PathHunter assay relative to CP55940; format: cell-based

Cannabinoid receptor 1 (Mus musculus), sequence (P47746 whole entry): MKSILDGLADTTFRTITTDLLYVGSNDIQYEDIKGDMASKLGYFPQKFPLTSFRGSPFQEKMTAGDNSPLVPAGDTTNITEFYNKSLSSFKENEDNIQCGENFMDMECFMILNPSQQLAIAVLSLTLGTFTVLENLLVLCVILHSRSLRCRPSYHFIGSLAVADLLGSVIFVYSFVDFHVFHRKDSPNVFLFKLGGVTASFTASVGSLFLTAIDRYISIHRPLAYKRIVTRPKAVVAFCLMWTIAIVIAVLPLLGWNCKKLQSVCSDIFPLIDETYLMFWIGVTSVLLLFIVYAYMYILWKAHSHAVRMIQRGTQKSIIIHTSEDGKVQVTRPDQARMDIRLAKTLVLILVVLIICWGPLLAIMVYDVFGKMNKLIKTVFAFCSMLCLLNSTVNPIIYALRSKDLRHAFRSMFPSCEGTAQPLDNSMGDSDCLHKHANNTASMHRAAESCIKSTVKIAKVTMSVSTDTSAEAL
T1 sequence (P21554 whole entry): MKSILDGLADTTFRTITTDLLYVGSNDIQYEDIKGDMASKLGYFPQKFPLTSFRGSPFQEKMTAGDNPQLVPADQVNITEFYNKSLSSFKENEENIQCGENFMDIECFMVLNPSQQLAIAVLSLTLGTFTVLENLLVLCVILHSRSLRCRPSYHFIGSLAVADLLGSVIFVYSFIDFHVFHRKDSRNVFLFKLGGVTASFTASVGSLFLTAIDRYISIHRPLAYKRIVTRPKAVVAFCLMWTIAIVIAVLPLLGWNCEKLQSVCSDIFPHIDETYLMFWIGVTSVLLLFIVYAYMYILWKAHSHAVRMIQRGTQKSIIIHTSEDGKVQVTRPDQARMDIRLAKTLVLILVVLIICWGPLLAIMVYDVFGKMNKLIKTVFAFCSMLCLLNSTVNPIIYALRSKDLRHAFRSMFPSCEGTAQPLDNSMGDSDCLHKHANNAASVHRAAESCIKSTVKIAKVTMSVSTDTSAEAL

| Compound | EC50 (Cannabinoid receptor 1 [1]) [nM] | EC50 (Cannabinoid receptor 1 [3]) [nM] | Emax (Cannabinoid receptor 1 [5]; read-out: Emax) [%] | EC50 (Cannabinoid receptor 1 [7]) [nM] | EC50 (Cannabinoid receptor 1 [8]) [nM] | Emax (Cannabinoid receptor 1 [10]) [%] | Activity [13] [%] | Emax (Cannabinoid receptor 1 [14]) [%] | Activity (Cannabinoid receptor 1 [15]) [%] | also measured |
| --- | --- | --- | --- | --- | --- | --- | --- | --- | --- | --- |
| N#Cc1ccc2c([C@@H](CC(F)(F)F)c3cccs3)c(-c3ccccc3)[nH]c2c1 | 828 | 29 | 84 | 363 | 17 |  |  |  |  | t1/2 [2]: 34.9 min; t1/2 [4]: 72.3 min; t1/2 [6]: 26.5 min |
| Cc1ccc2c(C(C[N+](=O)[O-])c3cccs3)c(-c3ccccc3)[nH]c2c1 (racemic) | 777 | 32 | 94 | 283 | 18 | 98 | 127 | 106 | > 50 | Activity (Mus musculus [9]): Non-Toxic; t1/2 [2]: 6.4 min; Activity (Mus musculus [11]): Non-Toxic; Activity (Mus musculus [12]): Non-Toxic; t1/2 [4]: 41.2 min; t1/2 [6]: 10.4 min; Activity (Mus musculus [16]): Non-Toxic; Activity (Mus musculus [17]): Non-Toxic |
| N#Cc1ccc2c(C(CC(F)(F)F)c3cccs3)c(-c3ccccc3)[nH]c2c1 (racemic) | 647 |  |  | 177 |  |  |  |  |  | Activity (Mus musculus [18]): Active; Activity (Mus musculus [9]): Non-Toxic; Activity (Mus musculus [11]): Non-Toxic; Activity (Mus musculus [12]): Non-Toxic; Activity (Mus musculus [19]): Tde; Activity (Mus musculus [20]): Tde; Activity (Mus musculus [16]): Non-Toxic; Activity (Mus musculus [17]): Non-Toxic |
| Cc1ccc2c(C(C(=O)C(F)(F)F)c3ccccc3)c(-c3ccccc3)[nH]c2c1 (racemic) |  |  |  |  |  |  |  |  | > 50 | Activity (Cannabinoid receptor 1 [21]): 50 to 100% |
| Cc1ccc2c(C(CC(F)(F)F)c3ccccc3)c(-c3ccccc3)[nH]c2c1 (racemic) |  |  |  |  |  |  |  |  | > 50 | Activity (Cannabinoid receptor 1 [21]): 50 to 100% |
| N#Cc1ccc2c(C(C[N+](=O)[O-])c3cccs3)c(-c3ccccc3)[nH]c2c1 (single isomer, unassigned; (+)) [listing 1 of 2 here] | > 10000 | 251 | 96 | 863 | 181 |  |  |  |  |  |
| N#Cc1ccc2c(C(C[N+](=O)[O-])c3cccs3)c(-c3ccccc3)[nH]c2c1 (single isomer, unassigned; (+)) [listing 2 of 2 here] |  |  |  |  |  | 102 | 99 | 51 |  | Activity (Cannabinoid receptor 1 [22]): > 50% |
| N#Cc1ccc2c(C(C[N+](=O)[O-])c3cccs3)c(-c3ccccc3)[nH]c2c1 (single isomer, unassigned; (-)) [listing 1 of 2 here] | > 10000 | 46 |  | 664 | 36 |  |  |  |  | Emax (Cannabinoid receptor 1 [5]): 97% |
| N#Cc1ccc2c(C(C[N+](=O)[O-])c3cccs3)c(-c3ccccc3)[nH]c2c1 (single isomer, unassigned; (-)) [listing 2 of 2 here] |  |  |  |  |  | 99 | 108 | 117 |  | Activity (Cannabinoid receptor 1 [22]): > 50% |
